# Experimental data published in US12691070B2, “Cationic lipids and preparation method thereof” (RiboX Therapeutics HK Limited, priority 2023, dated 2026).
# What was measured:
# [1] = system: Alanine Aminotransferase (ALT); test: Liver enzyme elevation in serum, ALT; type: in vivo; conditions: cirRNA (SEQ ID NO: 1) LNPs, BALB/C mice, intravenous 0.5 MPK
# Method: (§1) 6-8 week old, female BALB/C mice were injected with 0.5 mg*kg-1 of RNA LNPs by intravenous injection. At 2 and 24 hours post injection, animals were bled and sera concentrations of Alanine Aminotransferase (ALT) and Aspartate Aminotransferase (AST) were determined by a blood chemistry analyzer.
# Hep G2 cells [2] = test: In vitro toxicity (CellTiter-Glo cell viability), Hep G2; type: cell-based;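 also: percent of untreated cells luminescence signal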
# Method in brief: (§2)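 Viability after a 72 h incubation with 1 μg/mL RNA-LNP formulations was assessed luminometrically using CellTiter-Glo.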
# RAW 264.7 cells [3] = test: In vitro expression of firefly-luciferase, RAW 264.7; type: cell-based
# Method in brief: (§3)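 Luminescence from cell lysates reports expression: luciferase activity was measured 72 h after transfection with 100 ng/mL RNA-LNPs encoding firefly luciferase.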
# BALB/C mice [4] = test: In vivo expression, whole-body luminescence (IVIS)
# Method: 6-8 week old, female BALB/C mice were injected with 0.05 mg*kg-1 of RNA-LNPs encoding for firefly-luciferase by intravenous injection. At 6 hours post injection, animals were intraperitoneally injected with 15 mg/ml of Luciferin substrate and whole-body luminescence was determined by a bioluminescent in vivo imaging system (IVIS).
# MCP-I = MCP-I cytokine elevation in serum; type: in vivo; conditions: cirRNA (SEQ ID NO: 1) LNPs, mice
# Method: 6-8 week old, female BALB/C mice were injected with 0.5 mg*kg-1 of RNA LNPs by intravenous injection. At 2 and 24 hours post injection, animals were bled and sera concentrations of MCP-I were determined by an immunoassay (Luminex).
# Hep G2 cells [5] = test: In vitro expression of firefly-luciferase, Hep G2; type: cell-based
# Method in brief: as §3
# [6] = LNP size and polydispersity index (PDI) by dynamic light scattering; type: physicochemical; conditions: for Size: in nm (unit assumed)
# Method in brief: (§4)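 Ribogreen fluorescence with and without Triton X-100 gave encapsulation as 100% − (intact/lysed) signal; DLS size, PDI and zeta potential measured on a Zetasizer. Particles: 50:10:38.5:1.5 lipid mix, luciferase circRNA or mRNA, lipid:nucleotide 15 or 6, microfluidic assembly at pH 4.5, PBS-dialyzed.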
# [7] = RNA encapsulation efficacy by Quant-IT Ribogreen kit; type: physicochemical; conditions: for Encapsulation Efficiency %: LNP with cirRNA (SEQ ID NO: 1); for Encapsulation Efficiency: LNP with mRNA (SEQ ID NO: 2)
# Method in brief: as §4
# [8] = LNP zeta potential (Zetasizer); type: physicochemical
# Method in brief: as §4
# [9] = system: Aspartate Aminotransferase (AST); test: Liver enzyme elevation in serum, AST; type: in vivo; conditions: cirRNA (SEQ ID NO: 1) LNPs, BALB/C mice, intravenous 0.5 MPK
# Method: as §1
# BALB/C mice [10] = test: Local tolerance determination by footpad injection; type: in vivo; conditions: cirRNA (SEQ ID NO: 1) LNP, 0.175 mg*kg-1 subcutaneous into the footpad, 24 hours post minus prior
# Method: 6-8 week old, female BALB/C mice were injected with 0.175 mg*kg-1 RNA LNPs by subcutaneous injection into the footpad. Prior to, and 24 hours post injections, injected footpad thickness was determined by a caliper.
# RAW 264.7 cells [11] = test: In vitro toxicity (CellTiter-Glo cell viability), RAW 264.7; type: cell-based;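 also: percent of untreated cells luminescence signal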
# Method in brief: as §2
# [12] = cirRNA (SEQ ID NO: 1) LNPs, Hep G2 cells
# [13] = mRNA (SEQ ID NO: 2) LNP, 1 μg/mL, 72 hours post transfection
# [14] = cirRNA (SEQ ID NO: 1) LNPs, firefly-luciferase luminescence, RAW 264.7 cells
# [15] = mRNA (SEQ ID NO: 2) LNP, 100 ng/mL, 72 hours post transfection, luciferase activity
# [16] = cirRNA (SEQ ID NO: 1) LNPs, BALB/C mice
# [17] = mRNA (SEQ ID NO: 2) LNP, 0.05 mg*kg-1 intravenous, 6 hours post injection
# [18] = cirRNA (SEQ ID NO: 1) LNPs, firefly-luciferase luminescence, Hep G2 cells
# [19] = cirRNA (SEQ ID NO: 1) LNPs, RAW 264.7 cells
SMILES,ALT in Sera (IU/L) 2 hours After 0.5 MPK Injection [1] [IU/L],ALT in Sera (IU/L) 24 hours After 0.5 MPK Injection [1] [IU/L],In vitro Viability HepG2 (Hep G2 cells [2]; [12]) [%],In vitro Viability HepG2 (Hep G2 cells [2]; [13]) [%],In vitro Expression RAW (RAW 264.7 cells [3]; [14]),In vitro Expression RAW (RAW 264.7 cells [3]; [15]),In vivo Expression (Whole Body) (BALB/C mice [4]; [16]),In vivo Expression (Whole Body) (BALB/C mice [4]; [17]),MCP-I in Sera 2 hours After 0.5 MPK Injection (MCP-I) [pg/mL],MCP-I in Sera 24 hours After 0.5 MPK Injection (MCP-I) [pg/mL],In vitro Expression HepG2 (Hep G2 cells [5]; [18]),In vitro Expression HepG2 (Hep G2 cells [5]; [15]),PDI ([6]; LNP with cirRNA (SEQ ID NO: 1)),Size ([6]; LNP with cirRNA (SEQ ID NO: 1)),PDI ([6]; LNP with mRNA (SEQ ID NO: 2)),Size ([6]; LNP with mRNA (SEQ ID NO: 2)),Encapsulation Efficiency % [7] [%],Encapsulation Efficiency [7] [%],Zeta (mV) ([8]; LNP with cirRNA (SEQ ID NO: 1)),Zeta (mV) ([8]; LNP with mRNA (SEQ ID NO: 2)),also measured
"CCCCC/C=C\C/C=C\CCCCCCCCN(CCCCCCCC(=O)OC(CCCCCCCC)CCCCCCCC)CCOC(=O)NCCN1CCCCC1 [Lipid 127, heptadecan-9-yl 8-(((9Z,12Z)-octadeca-9,12-dien-1-yl)(2-(((2-(piperidin-1-yl)ethyl)carbamoyl)oxy)ethyl)amino)octanoate]",74.17,54.90,99,100,4.87E+06,5.53E+05,1.14E+09,8.69E+07,301.91,128.65,2.14E+06,1.75E+06,0.04,71.42,0.1822,57.31,95,87,−3.13,−1.439,"AST in Sera (IU/L) 2 hours After 0.5 MPK Injection [9]: 161.17 IU/L; AST in Sera (IU/L) 24 hours After 0.5 MPK Injection [9]: 91.53 IU/L; Footpad Thickness (24 h−0 h, mm) (BALB/C mice [10]): 0.94 mm; In vitro Viability RAW (RAW 264.7 cells [11]; [19]): 76%; In vitro Viability RAW (RAW 264.7 cells [11]; [13]): 109%"
"CCCCCCCCC(CCCCCC)C(=O)OCCCCCCCCN(CCCCCCCCOC(=O)C(CCCCCC)CCCCCCCC)CCOC(=O)NCCN(C)C (centres unmarked) [Lipid 6, 10-(8-((2-hexyldecanoyl)oxy)octyl)-2-methyl-6-oxo-7-oxa-2,5,10-triazaoctadecan-18-yl 2-hexyldecanoate]",99.33,181.67,89,113,1.11E+07,1.21E+07,1.21E+09,1.91E+09,7009.50,1653.42,1.82E+08,2.28E+08,0.06,87.2,0.03302,106.5,96,93.16,−2.24,4.201,"AST in Sera (IU/L) 2 hours After 0.5 MPK Injection [9]: 316.00 IU/L; AST in Sera (IU/L) 24 hours After 0.5 MPK Injection [9]: 411.00 IU/L; Footpad Thickness (24 h−0 h, mm) (BALB/C mice [10]): 0.44 mm; In vitro Viability RAW (RAW 264.7 cells [11]; [19]): 100%; In vitro Viability RAW (RAW 264.7 cells [11]; [13]): 77%"
CCCCCCCCCC(=O)OCCCCCCCN(CCCCCCCCOC(=O)C(CCCCCC)CCCCCCCC)CCOC(=O)NCCN(C)C (centres unmarked) [Lipid 197],106.67,171.00,88,116,1.87E+04,1.19E+07,3.04E+07,4.89E+08,1958.67,122.47,6.41E+05,2.51E+07,0.14,82.64,0.07142,113.7,96,79.87,5.5,13.59,"AST in Sera (IU/L) 2 hours After 0.5 MPK Injection [9]: 215.67 IU/L; AST in Sera (IU/L) 24 hours After 0.5 MPK Injection [9]: 237.67 IU/L; Footpad Thickness (24 h−0 h, mm) (BALB/C mice [10]): 0.08 mm; In vitro Viability RAW (RAW 264.7 cells [11]; [19]): 0%; In vitro Viability RAW (RAW 264.7 cells [11]; [13]): 0%"
"CCCCCCCCC(CCCCCCCC)OC(=O)CCCCCCCN(CCCCCCCCOC(=O)C(CCCCCC)CCCCCCCC)CCOC(=O)NCCN(C)C (centres unmarked) [Lipid 66, heptadecan-9-yl 10-(8-((2-hexyldecanoyl)oxy)octyl)-2-methyl-6-oxo-7-oxa-2,5,10-triazaoctadecan-18-oate]",51.97,63.6,93,82,9.90E+06,6.79E+06,2.03E+09,3.50E+09,7911.52,448.43,9.78E+07,1.59E+08,0.05,86.66,0.09823,75.46,96,88.25,−2.1,2.213,"AST in Sera (IU/L) 2 hours After 0.5 MPK Injection [9]: 176.40 IU/L; AST in Sera (IU/L) 24 hours After 0.5 MPK Injection [9]: 148.60 IU/L; Footpad Thickness (24 h−0 h, mm) (BALB/C mice [10]): 1.43 mm; In vitro Viability RAW (RAW 264.7 cells [11]; [19]): 100%; In vitro Viability RAW (RAW 264.7 cells [11]; [13]): 72%"
CCCCCCCCC(CCCCCCCC)OC(=O)CCCCCCCN(CCCCCCCCOC(=O)C(CCCCCC)CCCCCCCC)CCCOC(=O)NCCN1CCCC1 (centres unmarked) [Lipid 350],105.67,121.33,95,111,3.38E+06,5.78E+06,1.03E+08,5.29E+08,6084.33,2039.50,1.43E+07,4.34E+07,0.1717,112.8,0.1151,105.3,97,83.19,6.91,0.9211,"AST in Sera (IU/L) 2 hours After 0.5 MPK Injection [9]: 368.00 IU/L; AST in Sera (IU/L) 24 hours After 0.5 MPK Injection [9]: 362.67 IU/L; Footpad Thickness (24 h−0 h, mm) (BALB/C mice [10]): 0.55 mm; In vitro Viability RAW (RAW 264.7 cells [11]; [19]): 74%; In vitro Viability RAW (RAW 264.7 cells [11]; [13]): 86%"
